Test [1] has as its system mast cell development from murine bone marrow cells. The test can be described thus: In vitro mast cell development culture assay (IL-3, flow cytometry). In kind it is cell-based, mice. The following applies: for inhibition at 15 µM: read-out: POI (percent of inhibition based on MC numbers). Here is the method:
To further test the ability of 4-(3-hydroxy-1-(4-methoxybenzyl)-2-oxoindolin-3-yl)benzenesulfonamide to inhibit mast cell development, an established mast cell culture assay was employed (Henry, E. K., et al., J Exp Med, 2016. 213(9): p. 1663-73). As a positive control for mast cell development, bone marrow cells were isolated from the femur of mice and cultured in the presence of 10 ng/mL of IL-3 and vehicle (1:10, DMSO/RPMI complete media) for seven days and mast cells were identified by flow cytometric analysis as (c-Kit+ FceRIa+ CD49b− cells).
In vitro Mast Cell development: Briefly, 1×10^6 bone marrow-resident progenitor cells were isolated from the femur of mice and cultured in complete media supplemented with 10 ng/mL of rIL-3 for a period of […]. Mast cells were identified by their expression of the surface molecules FcεRIα and c-Kit via flow cytometric analysis. In addition to IL-3, cultures were treated with vehicle or increasing concentrations of Car enzyme inhibitors at the indicated concentrations.

The target in a further test is recombinant human Car1 (Homo sapiens, UniProt P00915). The test can be described thus: Stopped-flow assay of Car1 enzyme inhibition (IC50). The class given is biochemical. Here is the method:
Stopped-flow: IC50 values were established using an SX20 stopped-flow spectrometer from […]. In one syringe of the SX20, recombinant human Car1 was kept at a concentration of 9 μM in a sodium phosphate buffer and inhibitors were added to this solution at 0 nM, 10 nM, 20 nM, 80 nM and 100 nM. In a second syringe, a saturated CO2 solution was mixed with 0.2 mM phenol red. This series of dilutions allow for the evaluation of how quickly Car1 can metabolize the CO2 in the absence of an inhibitor and for the determination of whether that process is inhibited as increasing concentrations of compounds are added.

Test [2] has as its system intestinal mast cell responses. Description: Trichinella spiralis-induced mastocytosis model. Particulars: 2 mg/day i.p., T. spiralis-infected mice, day 10 post-infection. In kind it is in vivo. An excerpt:
To address this, a model of Trichinella spiralis-induced mastocytosis was employed and the capacity of MZ and 4-(3-hydroxy-1-(4-methoxybenzyl)-2-oxoindolin-3-yl)benzenesulfonamide to inhibit intestinal mast cell responses was directly compared (Henry, E. K., et al., J Exp Med, 2016. 213(9): p. 1663-73). Briefly, mice were infected with T. spiralis and treated with either vehicle, MZ or 4-(3-hydroxy-1-(4-methoxybenzyl)-2-oxoindolin-3-yl)benzenesulfonamide and intestinal mast cells were quantified via esterase staining and histological analysis (Henry, E. K., et al., J Exp Med, 2016. 213(9): p. 1663-73).
Trichinella spiralis infection: Mice were infected with 500 T. spiralis muscle stage larvae by oral gavage and were treated with vehicle (1:5, DMSO/PBS), 2 mg MZ, or 2 mg 4-(3-hydroxy-1-(4-methoxybenzyl)-2-oxoindolin-3-yl)benzenesulfonamide (CAR0037) i.p. daily; mice were sacrificed between on day 10-post infection and mast cell responses in the small intestine were evaluated by esterase staining as described previously (Henry, E. K., et al., J Exp Med, 2016. 213(9): p. 1663-73).

The mark [3] stands for this setting: Mus musculus, Mast cell, Table 3, at 15 uM.

The structures appear in SMILES notation. Read-outs that look alike come from different tables or passages of the source.

recombinant human Car1, sequence (P00915 whole entry): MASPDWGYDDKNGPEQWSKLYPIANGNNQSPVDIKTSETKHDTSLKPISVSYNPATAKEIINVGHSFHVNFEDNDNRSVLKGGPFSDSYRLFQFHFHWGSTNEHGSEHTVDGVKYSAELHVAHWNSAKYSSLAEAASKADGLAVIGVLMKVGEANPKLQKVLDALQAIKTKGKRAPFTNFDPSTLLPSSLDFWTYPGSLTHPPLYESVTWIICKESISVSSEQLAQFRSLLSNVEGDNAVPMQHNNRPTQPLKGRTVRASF

On to `NS(=O)(=O)c1ccc(C2(O)C(=O)N(Cc3ccc(F)c(F)c3)c3ccccc32)cc1` (centres unmarked) [NEM-9A, 4-[1-[(3,4-difluorophenyl)methyl]-3-hydroxy-2-oxo-indolin-3-yl]benzenesulfonamide], for which the inhibition at 15 µM in test [1] (setting [3]) was determined as 18%. On recombinant human Car1, the IC50 stood at 51.3 nM.
For `NS(=O)(=O)c1ccc(C2(O)C(=O)N(Cc3ccc(N4CCOCC4)cc3)c3ccccc32)cc1` (centres unmarked) [NEM-14A, 4-[3-hydroxy-1-[(4-morpholinophenyl)methyl]-2-oxo-indolin-3-yl]benzenesulfonamide], the “inhibition of mast cell numbers (POI) compared to MZ at 126 uM” value (from here on “inhibition … compared to MZ at 126 uM”) in test [1] (10 uM) is recorded as “comparable inhibition of mast cell numbers with the control, MZ, at 126 uM”; in test [1] (15 uM), “significantly higher inhibition than MZ at 126 uM”. Moreover, the inhibition at 15 µM in test [1] (setting [3]) came out at 98%. Also, at recombinant human Car1, the IC50 is 34 nM.
For the compound `COc1ccc(CN2C(=O)C(O)(c3ccc(S(N)(=O)=O)cc3)c3ccccc32)cc1` (centres unmarked) [CAR0037, 4-(3-hydroxy-1-(4-methoxybenzyl)-2-oxoindolin-3-yl)benzenesulfonamide], in test [1] (10 uM, IL-3 10 ng/mL, seven days, versus 126.97 uM MZ), the “inhibition of mast cell development compared to MZ” value is “inhibited mast cell development as effectively as 126.97 uM of MZ”. Moreover, the IC50 on recombinant human Car1 is 0.044 nM. Moreover, the “intestinal mast cell responses post-infection (esterase staining)” value in test [2] is “significantly decreased intestinal mast cell numbers”.
With `NS(=O)(=O)c1ccc(C2(O)C(=O)N(Cc3ccc(N4CCCC4)cc3)c3ccccc32)cc1` (centres unmarked) [NEM-24A, 4-[3-hydroxy-2-oxo-1-[(4-pyrrolidin-1-ylphenyl)methyl]indolin-3-yl]benzenesulfonamide], in test [1] (setting [3]), the inhibition at 15 µM stood at 99%. Further, on recombinant human Car1, the IC50 turned out to be 44.3 nM.
In the same order, the values of `NS(=O)(=O)c1ccc(C2(O)C(=O)N(CC3CCOCC3)c3ccccc32)cc1` (centres unmarked) [NEM-12A, 4-[3-hydroxy-2-oxo-1-(tetrahydropyran-4-ylmethyl)indolin-3-yl]benzenesulfonamide] are 6% and 62.5 nM.
Regarding `CC(=O)/N=c1/sc(S(N)(=O)=O)nn1C` [MZ, methazolamide, reference compound], the mast cell numbers entry in test [1] (30 μg/mL (126.97 uM), IL-3 10 ng/mL, seven days) is given as “significantly decreased mast cell numbers”. Also, the inhibition at 126 µM in test [1] (Mus musculus, Mast cell, read-out: POI of control (percent of inhibition based on MC numbers)) lay in the range of 78 to 100%. For the same compound, the “intestinal mast cell responses post-infection (esterase staining)” value in test [2] is listed as “no changes in mast cell responses”.
On to `NS(=O)(=O)c1ccc(C2(O)C(=O)N(c3cccc4cc5c(cc34)OCO5)c3ccccc32)cc1` (centres unmarked) [NEM-37A, 4-(1-benzo[f][1,3]benzodioxol-5-yl-3-hydroxy-2-oxo-indolin-3-yl)benzenesulfonamide], for which the inhibition at 15 µM in test [1] (setting [3]) came to 100%. Besides, at recombinant human Car1, the IC50 amounted to 5.3 nM.
For `CC(C)(C)OC(=O)N1CCN(c2ccc(CN3C(=O)C(O)(c4ccc(S(N)(=O)=O)cc4)c4ccccc43)cc2)CC1` (centres unmarked) [NEM-32A, tert-butyl 4-[4-[[3-hydroxy-2-oxo-3-(4-sulfamoylphenyl)indolin-1-yl]methyl]phenyl]piperazine-1-carboxylate], the inhibition at 15 µM in test [1] (Mus musculus, Mast cell) turned out to be 100%.
With `COc1ccc2c(N3C(=O)C(O)(c4ccc(S(N)(=O)=O)cc4)c4ccccc43)cccc2c1` (centres unmarked) [NEM-15A, 4-[3-hydroxy-1-(6-methoxy-1-naphthyl)-2-oxo-indolin-3-yl]benzenesulfonamide], the “inhibition … compared to MZ at 126 uM” value in test [1] (10 uM) and in test [1] (15 uM) was “significantly higher inhibition of mast cell numbers than MZ at 126 uM” each time. Besides, in test [1] (setting [3]), the inhibition at 15 µM was found to be 100%. For the same compound, the IC50 at recombinant human Car1 amounted to 35.3 nM.
For the compound `NS(=O)(=O)c1ccc(C2(O)C(=O)N(Cc3ccc(N4CCCCC4)cc3)c3ccccc32)cc1` (centres unmarked) [NEM-19A, 4-[3-hydroxy-2-oxo-1-[[4-(1-piperidyl)phenyl]methyl]indolin-3-yl]benzenesulfonamide], in test [1] (Mus musculus, Mast cell), the inhibition at 15 µM was 99%.
For `NS(=O)(=O)c1ccc(C2(O)C(=O)N(Cc3ccc(N4CCNCC4)cc3)c3ccccc32)cc1` (centres unmarked) [NEM-22A, 4-[3-hydroxy-2-oxo-1-[(4-piperazin-1-ylphenyl)methyl]indolin-3-yl]benzenesulfonamide], the inhibition at 15 µM in test [1] (Mus musculus, Mast cell) amounted to 53%.
On to `CCN1C(=O)C(O)(c2ccc(S(N)(=O)=O)cc2)c2ccccc21` (centres unmarked), for which the “Percent Inhibition at 10 μm” value in test [1] (10 μm, in vitro mast cell cultures) is 99%.
`NS(=O)(=O)c1ccc(C2(O)C(=O)N(Cc3ccc4c(c3)OCO4)c3ccccc32)cc1` (centres unmarked) [NEM-41A, 4-[1-(1,3-benzodioxol-5-ylmethyl)-3-hydroxy-2-oxo-indolin-3-yl]benzenesulfonamide]: the inhibition at 15 µM in test [1] (Mus musculus, Mast cell) is 64%.
As to `NS(=O)(=O)c1ccc(C2(O)C(=O)N(Cc3cc[n+]([O-])cc3)c3ccccc32)cc1` (centres unmarked) [NEM-10A, 4-[3-hydroxy-1-[(1-oxidopyridin-1-ium-4-yl)methyl]-2-oxo-indolin-3-yl]benzenesulfonamide], the inhibition at 15 µM in test [1] (setting [3]) is 11%. On recombinant human Car1, the IC50 came to 33.8 nM.
`NS(=O)(=O)c1ccc(C2(O)C(=O)N(Cc3ccc4ncccc4c3)c3ccccc32)cc1` (centres unmarked) [NEM-26A, 4-[3-hydroxy-2-oxo-1-(6-quinolylmethyl)indolin-3-yl]benzenesulfonamide]: in test [1] (Mus musculus, Mast cell), the inhibition at 15 µM was 82%.
In the case of `NS(=O)(=O)c1ccc(C2(O)C(=O)N(Cc3ccc(-c4ccncc4)cc3)c3ccccc32)cc1` (centres unmarked) [NEM-23A, 4-[3-hydroxy-2-oxo-1-[[4-(4-pyridyl)phenyl]methyl]indolin-3-yl]benzenesulfonamide], in test [1] (100 nM, titration, FIG. 3), the “inhibition of mast cell numbers” value is listed as “inhibits mast cell numbers”. In addition, the “inhibition … compared to MZ at 126 uM” value in test [1] (5 uM), in test [1] (10 uM) and in test [1] (15 uM) was “comparable level than MZ at 126 uM” each time. The inhibition at 0.25 µM in test [1] (Mus musculus, Mast cell, 250 nM, titration, FIG. 3, read-out: inhibition of mast cell numbers) is approximately 50%. Moreover, the inhibition at 15 µM in test [1] (setting [3]) is 99%. Moreover, on recombinant human Car1, the IC50 came out at 77 nM.
For the compound `NS(=O)(=O)c1ccc(C2(O)C(=O)N(c3ccc(Br)cc3)c3ccccc32)cc1` (centres unmarked) [NEM-27A, 4-[1-(4-bromophenyl)-3-hydroxy-2-oxo-indolin-3-yl]benzenesulfonamide], the inhibition at 15 µM in test [1] (Mus musculus, Mast cell) was 94%.
